Assay: Formation of metabolite in vivo after administration
Settings: Example 19 (a PDE4 inhibitor) formed when Example 14 is administered to a mammal
Procedure: For example, Example 19, (5-{(E)-2-(3-{6-[1-methyl-1-(methylsulfonyl)ethyl]-8-quinolinyl}phenyl)-1-[4-(methylsulfonyl)phenyl]ethenyl}-1,2,4-oxadiazol-3-yl)methanol: [drawing 2]
is administered. Accordingly, the present invention includes prodrugs that form PDE4 inhibitors in vivo as a metabolite after administering such prodrugs to a mammal. Further, this invention includes a method of treatment by a step of administering a prodrug to form in vivo an effective amount of a PDE4 inhibitor described by Formula I.

- metabolite formed in vivo: formed in vivo as a metabolite
SMILES: Cc1noc(/C(=C/c2cccc(-c3cc(C(C)(C)S(C)(=O)=O)cc4cccnc34)c2)c2ccc(S(C)(=O)=O)cc2)n1 [Example 14, 6-[1-methyl-1-(methylsulfonyl)ethyl]-8-[3-[(E)-2-[3-methyl-1,2,4-oxadiazol-5-yl]-2-[4-(methylsulfonyl)phenyl]ethenyl]phenyl]quinoline]
